Source: patent publication US12073966B2 (priority 2012, dated 2024)
“Also recorded” adds a separate entry of the source.

Key:
αHL = αHL (Staphylococcus aureus, UniProt P09616); type: biochemical
αHL pores = αHL pores (Staphylococcus aureus, UniProt P09616)
[1] = type: physicochemical
Method: A droplet containing pyranine (10 mM) and DPhPC (1 mg mL^−1) in 1 M KCl, 10 mM Tris·HCl, pH 7.0, was used to form a bilayer with another droplet containing DPhPC (1 mg mL^−1) but no pyranine in the same buffer. The droplets were incubated in a mixture of hexadecane/silicone oil AR20 (1:1 v/v) containing DPhPC (1 mg mL^−1).
An Ag/AgCl electrode, the cis electrode, was inserted into one droplet, and attached to the grounded end of a patch-clamp headstage (Axon Instruments, USA). A second Ag/AgCl electrode (trans) inserted in another droplet was connected to the active end. A positive potential causes the flow of anions from the cis to the trans electrode and of cations from trans to cis. The current was amplified by using a patchclamp amplifier (Axopatch 200B, Axon Instruments, USA), filtered with a low-pass Bessel filter (80 dB/decade) with a corner frequency of 1 kHz, and digitized with a Digidata 1322 A/D converter (Axon Instruments) at a sampling frequency of 20 kHz. Post-acquisition, the data were low-pass filtered at 100 Hz to 400 Hz. The droplet assembly, electrodes, and the headstage were enclosed in a metal box to minimize electrical noise.

Chain of αHL pores (P09616 27-319 limits assumed): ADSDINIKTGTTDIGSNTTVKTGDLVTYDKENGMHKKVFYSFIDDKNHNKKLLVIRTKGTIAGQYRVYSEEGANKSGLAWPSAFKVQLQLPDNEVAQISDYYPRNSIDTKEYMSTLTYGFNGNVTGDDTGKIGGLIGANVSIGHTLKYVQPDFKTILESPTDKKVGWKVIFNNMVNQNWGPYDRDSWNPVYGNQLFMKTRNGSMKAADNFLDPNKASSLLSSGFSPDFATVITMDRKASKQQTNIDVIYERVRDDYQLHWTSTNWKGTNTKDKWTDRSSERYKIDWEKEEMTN
Chain of αHL (P09616 27-319 limits assumed): as above

γ-cyclodextrin [γCD]
effect on ionic current / electrical signal through αHL pores (αHL): intermittently interrupted; also recorded: interrupted by γCD blockades

O=S(=O)(O)c1cc(O)c2ccc3c(S(=O)(=O)O)cc(S(=O)(=O)O)c4ccc1c2c34 [pyranine, 8-hydroxypyrene-1,3,6-trisulfonic acid]
dye transfer through bilayers of the droplet network (αHL pores): only through droplets containing αHL | time of influx into droplet 4 (fastest influx) (αHL pores): ≤ 13 h | time until colour change in all droplets of the second layer (αHL pores): 4 days | time until αHL-containing droplets turned green (αHL pores): ~70 h | effect on bilayer stability ([1]; current recordings, pyranine 10 mM): did not compromise bilayer stability | time the bilayer was stable (capacitance monitoring) ([1]; one droplet with pyranine 10 mM, DPhPC 1 mg mL^-1, hexadecane/silicone oil AR20 1:1): at least 90 min

xylene cyanol
dye transfer through bilayers of the droplet network (αHL pores): did not show any transfer; also recorded: No transfer
